Data: patent publication US8314250B2, “Sultam derivatives” (Hoffmann-La Roche Inc., priority 2009, dated 2012)
Structures can show the parent of a compound that is named as a salt.

What follows are compounds tested on HeLa cells (assay: CellTiter-Glo luminescent cell viability (cytotoxicity) assay). Details: 10 μM test compound, 48 hours, inhibition of luminescence compared to control cells, 10 µM.
Assay type: cell-based
Protocol: Cytotoxicity was assessed using Promega's CellTiter-Glo® luminescent cell viability assay (Promega Corporation, Madison, Wis., USA) as described in Promega Technical Bulletin TB288, revised August 2008. The assay was performed in HeLa cells at a maximum concentration tested of 10 μM of test compound. This assay measures the amount of adenosine triphosphate (ATP) present as a way of quantifying the presence and degree of metabolic activity in cell cultures.
Viable Hela cells were plated at a density of 3000 cells/well in 96 wells in black, clear bottom plates. Cells were allowed to attach to the plate by incubating overnight at 37° C. Test compounds were diluted in DMSO then further diluted in 10% FBS media. Media was removed from the cell plates and 50 μL of the solution was added to each well manually with the exception of the control well, which contained the same volume of 10% FBS media which includes 1% DMSO. Cells were incubated in the presence of compound undisturbed for 48 hours at 37° C. After the 48 hour compound exposure, 50 μL of the pCellTiter Glo® reagent was added. The cell plates were agitated on a shaker for 2 minutes to help lyse the cells. The plate was covered and read for luminescence.
Percent inhibition was calculated as follows: PCT_INHIB=100*[(U−T)/U] Where U represents the Luminescence of wells containing untreated cells and
T represents the Luminescence of wells containing compound-treated cells
For `COc1ccc(Cl)c(CN(Cc2cccc(CN3C(C(=O)NC45CC6CC(CC(C6)C4)C5)CCS3(=O)=O)c2)[C@H](CN(C)C)CC(C)(C)C)c1F` (single isomer, unassigned; epimer 2) [Example 34], the “Activity (PCT_INHIB @ 10 μM)” value was 97%.

Same assay, conditions: Homo sapiens, HeLa, 48 h, 10 μM test compound, inhibition of luminescence compared to control cells, read-out: Activity (PCT_INHIB @ 10 μM)
In the case of `COc1ccc(Br)c(CN(Cc2cccc(CN3C(C(=O)N[C@H]4C[C@H]5C[C@@H]([C@@H]4C)C5(C)C)CCS3(=O)=O)c2)[C@H](CN(C)C)CC(C)(C)C)c1O` (stereo partly drawn) [Example 14, 2-(3-{[(6-Bromo-2-hydroxy-3-methoxy-benzyl)-((S)-1-dimethylaminomethyl-3,3-dimethyl-butyl)-amino]-methyl}-benzyl)-1,1-dioxo-1λ^6-isothiazolidine-3-carboxylic acid((1S,2S,3S,5R)-2,6,6-trimethyl-bicyclo[3.1.1]hept-3-yl)-amide trifluoroacetate salt], the inhibition at 10 µM is reported as 75%.
Work on `COc1ccc(F)c(F)c1CN(Cc1cccc(CN2C(C(=O)N[C@H]3C[C@H]4C[C@@H]([C@@H]3C)C4(C)C)CCS2(=O)=O)c1)[C@@H](Cc1ccccc1)CN(C)C` (stereo partly drawn) [Example 29, 2-(3-{[(2,3-Difluoro-6-methoxy-benzyl)-((S)-1-dimethylaminomethyl-2-phenyl-ethyl)-amino]-methyl}-benzyl)-1,1-dioxo-1λ^6-isothiazolidine-3-carboxylic acid((1S,2S,3S,5R)-2,6,6-trimethyl-bicyclo[3.1.1]hept-3-yl)-amide] yielded an inhibition at 10 µM of 95%.
In the case of `COc1ccc(Cl)c(CN(Cc2cccc(CN3C(C(=O)N[C@H]4C[C@H]5C[C@@H]([C@@H]4C)C5(C)C)CCS3(=O)=O)c2)[C@@H](Cc2ccc(Cl)cc2)CN(C)C)c1F` (stereo partly drawn) [Example 23, 2-[3-({(6-Chloro-2-fluoro-3-methoxy-benzyl)-[(S)-2-(4-chloro-phenyl)-1-dimethylaminomethyl-ethyl]-amino}-methyl)-benzyl]-1,1-dioxo-1λ^6-isothiazolidine-3-carboxylic acid((1S,2S,3S,5R)-2,6,6-trimethyl-bicyclo[3.1.1]hept-3-yl)-amide], the inhibition at 10 µM is reported as 96%.
With `C[C@@H]1[C@@H](NC(=O)C2CCS(=O)(=O)N2Cc2cccc(CN(Cc3ccccc3Oc3ccc(C#N)cc3)[C@H](CN(C)C)CC(C)(C)C)c2)C[C@H]2C[C@@H]1C2(C)C` (stereo partly drawn) [Example 16, 2-(3-{[[2-(4-Cyano-phenoxy)-benzyl]-((S)-1-dimethylaminomethyl-3,3-dimethyl-butyl)-amino]-methyl}-benzyl)-1,1-dioxo-1λ^6-isothiazolidine-3-carboxylic acid((1S,2S,3S,5R)-2,6,6-trimethyl-bicyclo[3.1.1]hept-3-yl)-amide trifluoroacetate salt] the inhibition at 10 µM was 97%.
Compound `COc1ccc(C(C)C)cc1CN(Cc1cccc(CN2C(C(=O)N[C@H]3C[C@H]4C[C@@H]([C@@H]3C)C4(C)C)CCS2(=O)=O)c1)[C@H](CN(C)C)CC(C)(C)C` (stereo partly drawn) [Example 4, 2-(3-{[((S)-1-Dimethylaminomethyl-3,3-dimethyl-butyl)-(5-isopropyl-2-methoxy-benzyl)-amino]-methyl}-benzyl)-1,1-1λ^6-isothiazolidine-3-carboxylic acid((1S,2S,3S,5R)-2,6,6-trimethyl-bicyclo[3.1.1]hept-3-yl)-amide trifluoroacetate salt] has an inhibition at 10 µM of 96%.
`COc1ccc(Cl)c(CN(Cc2cc(CN3C(C(=O)N[C@H]4C[C@H]5C[C@@H]([C@@H]4C)C5(C)C)CCS3(=O)=O)cc(N(C)C)c2)[C@H](CN(C)C)CC(C)(C)C)c1F` (stereo partly drawn) [Example 35, 2-(3-{[(6-Chloro-2-fluoro-3-methoxy-benzyl)-((S)-1-dimethylaminomethyl-3,3-dimethyl-butyl)-amino]-methyl}-5-dimethylamino-benzyl)-1,1-dioxo-1λ^6-isothiazolidine-3-carboxylic acid((1S,2S,3S,5R)-2,6,6-trimethyl-bicyclo[3.1.1]hept-3-yl)-amide, hydrochloride salt] was tested, and the inhibition at 10 µM was 86%.
In the case of `C[C@@H]1[C@@H](NC(=O)C2CCS(=O)(=O)N2Cc2cccc(CN(Cc3ccccc3OC(F)F)[C@H](CN(C)C)CC(C)(C)C)c2)C[C@H]2C[C@@H]1C2(C)C` (stereo partly drawn) [Example 5, 2-(3-{[(2-Difluoromethoxy-benzyl)-((S)-1-dimethylaminomethyl-3,3-dimethyl-butyl)amino]-methyl}-benzyl)-1,1-dioxo-1λ^6-isothiazolidine-3-carboxylic acid((1S,2S,3S,5R)-2,6,6-trimethyl-bicyclo[3.1.1]hept-3-yl)-amide trifluoroacetate salt], the inhibition at 10 µM is reported as 87%.
Compound `COc1ccc(Cl)c(CN(Cc2cccc(CN3C(C(=O)N4CCC(O)(c5ccc(Cl)cc5)CC4)CCS3(=O)=O)c2)[C@H](CN(C)C)CC(C)(C)C)c1F` (stereo partly drawn) [Example 32, [2-(3-{[(6-Chloro-2-fluoro-3-methoxy-benzyl)-((S)-1-dimethylaminomethyl-3,3-dimethyl-butyl)-amino]-methyl}-benzyl)-1,1-dioxo-1λ^6-isothiazolidin-3-yl]-[4-(4-chloro-phenyl)-4-hydroxy-piperidin-1-yl]-methanone] has an inhibition at 10 µM of 96%.
In the case of `C[C@@H]1[C@@H](NC(=O)C2CCS(=O)(=O)N2Cc2cccc(CN(Cc3c(F)ccc(Br)c3F)[C@H](CN(C)C)CC(C)(C)C)c2)C[C@H]2C[C@@H]1C2(C)C` (stereo partly drawn) [Example 18, 2-(3-{[(3-Bromo-2,6-difluoro-benzyl)-((S)-1-dimethylaminomethyl-3,3-dimethyl-butyl)-amino]-methyl}-benzyl)-1,1-dioxo-1λ^6-isothiazolidine-3-carboxylic acid((1S,2S,3S,5R)-2,6,6-trimethyl-bicyclo[3.1.1]hept-3-yl)-amide trifluoroacetate salt], the inhibition at 10 µM is reported as 94%.
Work on `C[C@@H]1[C@@H](NC(=O)C2CCS(=O)(=O)N2Cc2cccc(CN(Cc3ccccc3I)[C@H](CN(C)C)CC(C)(C)C)c2)C[C@H]2C[C@@H]1C2(C)C` (stereo partly drawn) [Example 2, 2-(3-{[((S)-1-Dimethylaminomethyl-3,3-dimethyl-butyl)-(2-iodo-benzyl)-amino]-methyl}-benzyl)-1,1-dioxo-1λ^6-isothiazolidine-3-carboxylic acid((1S,2S,3S,5R)-2,6,6-trimethyl-bicyclo[3.1.1]hept-3-yl)-amide trifluoroacetate salt] yielded an inhibition at 10 µM of 50%.
For `Cc1ccc(Oc2ccccc2CN(Cc2cccc(CN3C(C(=O)N[C@H]4C[C@H]5C[C@@H]([C@@H]4C)C5(C)C)CCS3(=O)=O)c2)[C@H](CN(C)C)CC(C)(C)C)cc1` (stereo partly drawn) [Example 7, 2-(3-{[((S)-1-Dimethylaminomethyl-3,3-dimethyl-butyl)-(2-p-tolyloxy-benzyl)-amino]-methyl}-benzyl)-1,1-dioxo-1λ^6-isothiazolidine-3-carboxylic acid((1S,2S,3S,5R)-2,6,6-trimethyl-bicyclo[3.1.1]hept-3-yl)-amide trifluoroacetate salt], the inhibition at 10 µM was 58%.
In the case of `C[C@@H]1[C@@H](NC(=O)C2CCS(=O)(=O)N2Cc2cccc(CN(Cc3c(F)cccc3Oc3ccccc3)[C@H](CN(C)C)CC(C)(C)C)c2)C[C@H]2C[C@@H]1C2(C)C` (stereo partly drawn) [Example 12, 2-(3-{[((S)-1-Dimethylaminomethyl-3,3-dimethyl-butyl)-(2-fluoro-6-phenoxy-benzyl)-amino]-methyl}-benzyl)-1,1-dioxo-1λ^6-isothiazolidine-3-carboxylic acid((1S,2S,3S,5R)-2,6,6-trimethyl-bicyclo[3.1.1]hept-3-yl)-amide trifluoroacetate salt], the inhibition at 10 µM is reported as 96%.
For `Cc1ccc(CN(Cc2cccc(CN3C(C(=O)N[C@H]4C[C@H]5C[C@@H]([C@@H]4C)C5(C)C)CCS3(=O)=O)c2)[C@H](CN(C)C)CC(C)(C)C)c(O)c1` (stereo partly drawn) [Example 9, 2-(3-{[((S)-1-Dimethylaminomethyl-3,3-dimethyl-butyl)-(2-hydroxy-4-methylbenzyl)-amino]-methyl}-benzyl)-1,1-dioxo-1λ^6-isothiazolidine-3-carboxylic acid((1S,2S,3S,5R)-2,6,6-trimethyl-bicyclo[3.1.1]hept-3-yl)-amide trifluoroacetate salt], the inhibition at 10 µM was 96%.
In the case of `C[C@@H]1[C@@H](NC(=O)C2CCS(=O)(=O)N2Cc2cccc(CN(Cc3ccccc3Oc3ccc(F)cc3)[C@H](CN(C)C)CC(C)(C)C)c2)C[C@H]2C[C@@H]1C2(C)C` (stereo partly drawn) [Example 6, 2-[3-({((S)-1-Dimethylaminomethyl-3,3-dimethyl-butyl)-[2-(4-fluoro-phenoxy)-benzyl]-amino}-methyl)-benzyl]-1,1-dioxo-1λ^6-isothiazolidine-3-carboxylic acid((1S,2S,3S,5R)-2,6,6-trimethyl-bicyclo[3.1.1]hept-3-yl)-amide trifluoroacetate salt], the inhibition at 10 µM is reported as 82%.
`COc1ccc(Cl)c(CN(Cc2cccc(CN3C(C(=O)N[C@@H]4C[C@@H]5C[C@H]([C@H]4C)C5(C)C)CCS3(=O)=O)c2)[C@H](CN(C)C)CC(C)(C)C)c1F` (stereo partly drawn) [Example 19, 2-(3-{[(6-Chloro-2-fluoro-3-methoxy-benzyl)-((S)-1-dimethylaminomethyl-3,3-dimethyl-butyl)-amino]-methyl}-benzyl)-1,1-dioxo-1λ^6-isothiazolidine-3-carboxylic acid((1R,2R,3R,5S)-2,6,6-trimethyl-bicyclo[3.1.1]hept-3-yl)-amide] showed an inhibition at 10 µM of 73%.
